Consider eleven compounds from PMC11387234, “Identification of novel inhibitors of the transcriptional coactivator MRTF-A for HCC therapy” (Molecular Therapy Oncology, 2024).

One assay addresses TRPM7 (Mus musculus, UniProt Q923J1). In words: Aequorin-based Ca2+ influx assay for TRPM7 inhibition. Format: cell-based. Particulars: for Hill slopes for TRPM7 inhibition: Ca2+ influx assay, logistic equation fits, n = 3; for TRPM7 affinity compared to NS: relative to NS8593 (Figure 1C). How it is done:
HEK293T cells were transfected with 2 μg TRPM7 plasmid DNA and 0.1 μg pG5A plasmid DNA. After 24 h, the cells were washed with Mg^2+-free HEPES-buffered saline (HBS) containing 140 mM NaCl, 5.4 mM KCl, 0.5 mM CaCl2, 5 mM HEPES (pH 7.4), and 10 mM glucose and resuspended in Mg^2+-free HBS. After 30 min of incubation with 5 μM coelenterazine (Biaffin) at room temperature to reconstitute the aequorin, cells were washed two times by centrifugation at 2,000 rpm for 5 min (Heraeus Pico 17 microcentrifuge, Thermo Fisher Scientific). Then, they were resuspended in Mg^2+-free HBS and plated into 96-well plates. Luminescence was detected at room temperature using a CLARIOstar microplate reader (BMG Labtech). CaCl2-containing Mg^2+-free HBS was injected in the presence or absence of the inhibitors to increase the extracellular Ca^2+ concentration to 5 mM. Cell lysis with 0.1% (v/v) Triton X-100 in the Mg^2+-free HBS was used to terminate the experiment, and total bioluminescence was measured. The analysis of the bioluminescence rates (counts/s) was done in 1-s intervals and calibrated as [Ca^2+]i values using the following equation: p[Ca^2+]i=0,332588(−log(k))+5,5593 k represents the rate of aequorin consumption.
The following equation was used to determine the IC50 values of the inhibitors: E(c)=Emin+[…]/1+c^h/IC50^h
E(c) is the functional effect at the concentration c of the inhibitor, Emin is the minimal effect, Emax is the maximal effect, IC50 is the concentration of the inhibitor that produces the half-maximal effect, and h is the Hill coefficient. GraphPad Prism 8.4.0 was used for fitting.

A further assay relates to SK3 channels. Also on record: method as in Sørensen et al. 22. Particulars: relative to NS8593 (Figure 1C); ref Sørensen et al. 22; cited from earlier work.
In assay [1] the test system is HuH7 cells. The assay can be described thus: Cell proliferation assay (cell counting) in HuH7 cells. As to conditions: for Inhibitory effects on HCC proliferation as compared to inhibitor 10: 10 μM, 5 days; for Concentration sufficient to cease HCC cell proliferation: titration 10, 7.5, 5, 2.5 μM. In kind it is cell-based. As for the experimental part: (§1) Cells were seeded and counted every 24 h for 5 days by using a Neubauer counting chamber.

The subject of a further assay is HuH6 cells. The assay can be described thus: Cell proliferation assay (cell counting) in HuH6 cells. Format: cell-based. How it is done:
as §1

The next assay relates to SRF. The assay can be described thus: SRF reporter gene (5×SRE-luciferase) assay. In kind it is cell-based. As to conditions: HuH7 cells, 24 h. As for the experimental part: HuH7 cells were seeded in a 12-well plate and transiently transfected with 0.25 μg 5×SRE and 0.15 μg Renilla luciferase simian virus 40 (SV40) promoter reporter as an internal control. The next day, cells were treated with inhibitors, as indicated in the figure legends, and the Dual-Luciferase Reporter Assay System (Promega, Madison, Wisconsin, USA) and the BioFix Lumi-10 (Macherey-Nagel, Düren, Germany) were used. The firefly luciferase activity was normalized to the Renilla luciferase activity to compensate for divergent transfection efficiencies.

A further assay relates to MRTF-A. The assay can be described thus: Immunofluorescence of MRTF-A nuclear localization. Format: cell-based. Particulars: HuH7 cells, 5 μM, 18 h. As for the experimental part: Cells were fixated by a 10-min incubation with 4% paraformaldehyde in PBS. To permeabilize the cells, 0.2% Triton X-100 in PBS was used. Blocking was done with 1% BSA in PBS for 30 min at 37°C, followed by incubation with the respective primary antibodies (Table S4) for 1 h at room temperature and the secondary Alexa Fluor 488-coupled antibody (Invitrogen) (Table S5). The nucleus was stained with DAPI (Sigma-Aldrich). Images were taken using a fluorescence microscope (Nikon).

In assay [2] the test system is HuH7 cells. The assay can be described thus: SA-β-Gal staining (cellular senescence) in HuH7 cells. As to conditions: HuH7 cells. Format: cell-based. How it is done:
Cellular senescence of treated cells was determined using the Senescence-β-galactosidase staining kit according to the manufacturer’s instructions (Cell Signaling Technology, Danvers, MA, USA). 300 cells were counted. The ratio stained to unstained cells were used to calculate the percentage of SA-β-gal-positive cells.

Sequence of TRPM7 (Q923J1 whole entry): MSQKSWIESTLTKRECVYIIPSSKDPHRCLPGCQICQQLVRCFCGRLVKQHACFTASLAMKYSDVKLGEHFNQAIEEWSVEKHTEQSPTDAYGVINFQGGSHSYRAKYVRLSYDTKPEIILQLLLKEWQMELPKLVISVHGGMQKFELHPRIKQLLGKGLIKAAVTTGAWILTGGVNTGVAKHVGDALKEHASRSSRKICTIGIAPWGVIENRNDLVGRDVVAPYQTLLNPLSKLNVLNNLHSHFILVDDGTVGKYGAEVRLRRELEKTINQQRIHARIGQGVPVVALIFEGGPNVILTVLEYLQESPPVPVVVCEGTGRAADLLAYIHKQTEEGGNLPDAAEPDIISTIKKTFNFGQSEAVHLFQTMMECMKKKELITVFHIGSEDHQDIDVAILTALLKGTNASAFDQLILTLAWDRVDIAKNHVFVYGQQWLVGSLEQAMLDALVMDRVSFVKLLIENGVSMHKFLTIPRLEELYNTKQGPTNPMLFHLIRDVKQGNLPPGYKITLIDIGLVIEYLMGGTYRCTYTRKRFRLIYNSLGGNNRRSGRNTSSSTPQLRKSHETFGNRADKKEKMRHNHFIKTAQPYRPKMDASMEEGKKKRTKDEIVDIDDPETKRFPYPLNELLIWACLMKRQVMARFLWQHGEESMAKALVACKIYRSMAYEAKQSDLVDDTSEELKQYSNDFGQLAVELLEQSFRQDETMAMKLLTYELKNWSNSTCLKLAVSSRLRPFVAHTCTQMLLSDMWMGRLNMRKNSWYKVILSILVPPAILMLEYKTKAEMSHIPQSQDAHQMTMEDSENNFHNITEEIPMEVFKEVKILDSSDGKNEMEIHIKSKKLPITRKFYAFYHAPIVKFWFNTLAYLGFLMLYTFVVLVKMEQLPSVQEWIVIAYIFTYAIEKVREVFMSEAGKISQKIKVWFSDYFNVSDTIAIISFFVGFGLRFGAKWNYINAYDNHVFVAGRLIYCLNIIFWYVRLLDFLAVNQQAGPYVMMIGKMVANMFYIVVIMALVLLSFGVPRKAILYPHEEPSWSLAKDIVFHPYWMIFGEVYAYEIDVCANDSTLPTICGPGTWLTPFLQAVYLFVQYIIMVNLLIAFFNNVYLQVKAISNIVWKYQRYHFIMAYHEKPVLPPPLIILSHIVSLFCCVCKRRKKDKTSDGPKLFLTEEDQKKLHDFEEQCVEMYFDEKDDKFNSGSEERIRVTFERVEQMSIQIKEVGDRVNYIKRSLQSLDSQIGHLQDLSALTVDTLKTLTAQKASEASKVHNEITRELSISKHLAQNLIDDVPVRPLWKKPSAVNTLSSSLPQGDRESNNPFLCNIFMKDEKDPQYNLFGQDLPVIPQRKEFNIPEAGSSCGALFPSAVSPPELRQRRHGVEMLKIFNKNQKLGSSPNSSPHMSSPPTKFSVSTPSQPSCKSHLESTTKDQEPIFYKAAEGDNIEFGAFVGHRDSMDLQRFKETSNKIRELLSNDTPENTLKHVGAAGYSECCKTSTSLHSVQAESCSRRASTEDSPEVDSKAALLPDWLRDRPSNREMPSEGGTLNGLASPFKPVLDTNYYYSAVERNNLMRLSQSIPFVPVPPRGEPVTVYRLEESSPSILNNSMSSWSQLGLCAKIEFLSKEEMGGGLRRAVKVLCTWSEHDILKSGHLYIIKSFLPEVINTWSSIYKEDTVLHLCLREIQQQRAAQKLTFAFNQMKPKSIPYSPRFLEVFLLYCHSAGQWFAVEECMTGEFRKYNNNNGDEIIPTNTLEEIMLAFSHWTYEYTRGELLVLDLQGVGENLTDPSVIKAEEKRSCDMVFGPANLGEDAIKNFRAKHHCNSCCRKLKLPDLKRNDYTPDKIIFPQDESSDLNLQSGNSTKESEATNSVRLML

`c1ccc2c(c1)CCCC2Nc1nc2ccccc2[nH]1` (stereo not drawn) [NS8593, reference compound]: the “Hill slopes for TRPM7 inhibition” value on TRPM7 is given as -1.432.

Turning to `Fc1ccc2c(c1)C(Nc1nc3ccccc3[nH]1)CCC2` (stereo not drawn) [compound 2], in the assay with SK3 channels, the “SK3 affinity compared to NS” value was “>NS”. For the same compound, at TRPM7, the “Hill slopes for TRPM7 inhibition” value is reported as -1.165 and the “TRPM7 affinity compared to NS” value is reported as “<NS”.

As to `COc1ccc2c(c1)C(Nc1nc3ccccc3[nH]1)CCC2` (stereo not drawn) [compound 3], the “SK3 affinity compared to NS” value in the assay on SK3 channels is “=NS”. Besides, on TRPM7, the “Hill slopes for TRPM7 inhibition” value is recorded as -1.224 and the “TRPM7 affinity compared to NS” value is recorded as “<NS”.

For `Cc1ccc2c(c1)C(Nc1nc3ccccc3[nH]1)CCC2` (stereo not drawn) [compound 4], in the assay on SK3 channels, the “SK3 affinity compared to NS” value is recorded as “>NS”. Besides, on TRPM7, the “Hill slopes for TRPM7 inhibition” value is given as -1.123 and the “TRPM7 affinity compared to NS” value is on record as “<NS”.

Turning to `Clc1cc2c(cc1Cl)C(Nc1nc3ccccc3[nH]1)CCC2` (stereo not drawn) [compound 6], the “SK3 affinity compared to NS” value in the assay on SK3 channels is recorded as “>NS”. In addition, at TRPM7, the “Hill slopes for TRPM7 inhibition” value was -1.292 and the “TRPM7 affinity compared to NS” value was “=NS”.

`c1ccc2[nH]c(NC3CCCc4ccncc43)nc2c1` (stereo not drawn) [compound 7]: in the assay with SK3 channels, the “SK3 affinity compared to NS” value is “<NS”. Besides, the “Effect on cell proliferation” value in the assay on HuH7 cells [1] (30 μM NS, rNS, 2, 3, 7, 8, 10 μM 4, 5, 6, 5 days) is given as “decreased cell proliferation only marginally”. The “Effect on cell proliferation” value with HuH6 cells (30 µM NS8593, 2, 3, 7, 8, 10 µM 4, 5, 6, 5 days) is “decreased cell proliferation only marginally”. For the same compound, at TRPM7, the “Hill slopes for TRPM7 inhibition” value is on record as -0.9579 and the “TRPM7 affinity compared to NS” value is recorded as “<NS”.

Take `c1ccc(-c2ccccc2Nc2nc3ccccc3[nH]2)cc1` [compound 9]: the “SRF reporter gene activity” value with SRF (10 μM) is recorded as “remained largely unchanged”.

With `c1ccc(-c2cccc(Nc3nc4ccccc4[nH]3)c2)cc1` [compound 10], in the assay with SRF (10 μM), the “SRF activity decreased to” value came to 25%. Also, the “Localization of endogenous MRTF-A” value in the assay on MRTF-A is given as “cytoplasmic”.

As for `Fc1ccc(-c2ccccc2Nc2nc3ccccc3[nH]2)cc1` [compound 13], the “SRF reporter gene activity” value with SRF (10 μM) is “remained largely unchanged”.

For the compound `CC(C)c1ccc(-c2cccc(Nc3nc4ccccc4[nH]3)c2)cc1` [compound 14], in the assay with HuH7 cells [1] (10 μM (Figure 6C)), the “Effect on cell proliferation” value is “proliferation arrest”. In addition, in the assay with HuH7 cells [1], the “Inhibitory effects on HCC proliferation as compared to inhibitor 10” value is “significantly improved” and the “Concentration sufficient to cease HCC cell proliferation” value was 2.5 µM. Further, in the assay on SRF, the “Concentration at which SRF activity is significantly reduced” value was 2.5 µM. The “Effect on cell proliferation” value with HuH6 cells (10 µM (Figure S5A)) was “proliferation arrest”.

As for `Fc1cccc(-c2cccc(Nc3nc4ccccc4[nH]3)c2)c1` [compound 16], the “Effect on cell proliferation” value in the assay with HuH7 cells [1] (10 μM (Figure 6C)) is given as “proliferation arrest”. Moreover, in the assay with HuH7 cells [1], the “Inhibitory effects on HCC proliferation as compared to inhibitor 10” value was “significantly improved” and the “Concentration sufficient to cease HCC cell proliferation” value was determined as 2.5 µM. In addition, in the assay with SRF, the “Concentration at which SRF activity is significantly reduced” value amounted to 2.5 µM. Besides, in the assay on HuH7 cells [2], the “Concentration that significantly increases SA-β-Gal-positive cells (senescence induction)” value was found to be 2.5 µM. For the same compound, in the assay on HuH6 cells (10 µM (Figure S5A)), the “Effect on cell proliferation” value is on record as “proliferation arrest”.
